Reference: US20110313056A1 (BIO SYNTECH CANADA INC., priority 2005, published 2011)

Tests used:
[1] = Glycerol 2-phosphate titration followed by 31P chemical shift and pH at different temperatures; format: physicochemical
Source text: In order to measure the variation of the polyelectrolyte ionization degree (chitosan in the present case), we performed NMR measurements of the glycerol 2-phosphate (GP) ^31P chemical shift. Glycerol 2-phosphate titration curve at different temperatures allow determination pKa2^GP, δa and δb by fitting pH and δ values of the following equation
where δa and δb are the chemical shifts of ^31P in the monovalent and divalent form of GP, respectively.
This last equation is valid for ideal solutions where the proton activity coefficient is γH+=1.
We dissolve 0.594 g of glycerol 2-phosphate (Sigma, No. Cat. G-9891, 297 g/mol with 4.5 moles H2O per mole of GP) in 18 mL H2Odd and 2 mL D2O (Aldrich, No. Cat. 15,188-2-250G) in a graduate cylinder giving a CGP concentration of 100 mM. A total of 11 solutions (see Table 3) with different ionization degree are prepared from this base solution. The pH is measured with an Accumet meter, model 20 using an electrode 9803BN from Orion.

[2] = Diffusion of GP from chitosan gel into DMEM bath, phosphorus by Kjeldahl digestion; format: physicochemical; conditions: GP concentration in DMEM bath over time vs free diffusion model
Source text: Here we provide evidence that supports the notion that there is no ionic cross-link between the polyelectrolyte and the counter-ion, using gels kept in contact with a bath solution to allow the weak electrolyte (glycerol 2-phosphate in this example) to diffuse out of the gel. […] A simple diffusion model predicted the diffusion profile and allowed the calculation of the diffusion constant in the gel (see section “Diffusion from a gel to a washing solution”) showing an absence of binding with the chitosan gel component.
A 7.5 mL solution (see Table 6) containing chitosan (2.93% w/v Protosan UP CL 213) was placed on ice at 4° C. To this solution, we added 2.25 mL glucosamine (2.16% w/v) drop by drop every 15 seconds followed by 1 mL glycerol 2-phosphate (GP) (33.3% w/v) and 2 mL of hydroxyethyl cellulose. […]
Samples of gel were then taken for analysis of phosphorus content and additional gel samples also taken following three subsequent washes in DMEM for 60 minutes each. Phosphorus was quantified using the established method of Kjeldahl digestion (Liao, N., Total phosphorus in Kjeldahl digests, Milwaukee, Wis.: LACHAT Instruments, 25 p., QuickChem Method 10-115-01-1-C, 1993) followed by the analysis of the absorption at 880 nm of the PO4^3− complex with ammonium molybdate and antimony potassic tartrate.
Concentration cp^m is the measured concentration from the absorption at 880 nm. […]

[3] = literature (Voet and Voet); cited from earlier work

| Compound | pKa2^GP ([1]; 5 ° C.) | pKa2^GP ([1]; 15 ° C.) | pKa2^GP ([1]; 25 ° C.) | pKa2^GP ([1]; 37 ° C.) | binding of GP to the components of the gel [2] | Ka1^P [3] | Ka2^P [3] |
| --- | --- | --- | --- | --- | --- | --- | --- |
| O=P(O)(O)OC(CO)CO [GP, glycerol 2-phosphate] | 6.13 | 6.14 | 6.16 | 6.16 | lack of binding | – | – |
| O=P(O)(O)O [phosphate, inorganic phosphate] | – | – | – | – | – | approximately 2.2 | ~6.8 |
